The values below come from paper PMC6195434 (Environmental science & technology, 2018).

Like-named read-outs stand apart in the source and are kept apart here.

Series [1] deals with SERCA1a (Oryctolagus cuniculus, UniProt P04191). Briefly: biochemical. Format: biochemical, New Zealand White rabbits. Conditions: for activity toward SERCA1a: Figure 5G; for inhibition at 10 µM: read-out: SERCA1a inhibition.
In series [2] the target is T1, RyR1 (Oryctolagus cuniculus, UniProt P11716). Briefly: Equilibrium [3H]Ry binding analysis on RyR1-enriched microsomal membranes. Further details: species or system New Zealand White rabbits. Conditions: for activity in enhancing [3H]Ry binding to RyR1: concentration-response, efficacy at 10 μM, Figure 3A, B; for RyR1 inhibitory potency compared with 6 / decrease of apparent activation potency relative to 6: Figure 3C table insert; for maximum efficacy relative to 6: higher maximum efficacy at 50 μM compared to that reached by 6 at 1 μM; for decrease of apparent activation potency relative to 6: less potent activator than 6.

Series [3] concerns microsomal (JSR) membrane vesicles. Nature of the series: Microsomal Ca2+ fluxes and Ca2+-induced Ca2+ release. The series is classed as biochemical, New Zealand White rabbits. On the technique in general: Calcium assays in cells follow changes in intracellular calcium, usually with a dye or a luminescent sensor.
Series [4] addresses T1, RyR1. The following applies: previous data; cited from earlier work.
Series [5] relates to CHO (Chinese hamster ovary) cells. The following applies: cited from earlier work.
Series [6] concerns Platynereis dumerilii embryos. Conditions: cited from earlier work.
Setting [7] is: at 2 μM, baseline = binding in presence of Veh alone, p < 0.05 vs Veh.
The mark [8] stands for this setting: 5 or 10 μM, initial 60 s release rate, vesicles loaded with 4 × 45 nmole Ca2+.
The mark [9] stands for this setting: expanded concentration range, Figure 3C.

SERCA1a, sequence (P04191 1-994 isoform P04191-2): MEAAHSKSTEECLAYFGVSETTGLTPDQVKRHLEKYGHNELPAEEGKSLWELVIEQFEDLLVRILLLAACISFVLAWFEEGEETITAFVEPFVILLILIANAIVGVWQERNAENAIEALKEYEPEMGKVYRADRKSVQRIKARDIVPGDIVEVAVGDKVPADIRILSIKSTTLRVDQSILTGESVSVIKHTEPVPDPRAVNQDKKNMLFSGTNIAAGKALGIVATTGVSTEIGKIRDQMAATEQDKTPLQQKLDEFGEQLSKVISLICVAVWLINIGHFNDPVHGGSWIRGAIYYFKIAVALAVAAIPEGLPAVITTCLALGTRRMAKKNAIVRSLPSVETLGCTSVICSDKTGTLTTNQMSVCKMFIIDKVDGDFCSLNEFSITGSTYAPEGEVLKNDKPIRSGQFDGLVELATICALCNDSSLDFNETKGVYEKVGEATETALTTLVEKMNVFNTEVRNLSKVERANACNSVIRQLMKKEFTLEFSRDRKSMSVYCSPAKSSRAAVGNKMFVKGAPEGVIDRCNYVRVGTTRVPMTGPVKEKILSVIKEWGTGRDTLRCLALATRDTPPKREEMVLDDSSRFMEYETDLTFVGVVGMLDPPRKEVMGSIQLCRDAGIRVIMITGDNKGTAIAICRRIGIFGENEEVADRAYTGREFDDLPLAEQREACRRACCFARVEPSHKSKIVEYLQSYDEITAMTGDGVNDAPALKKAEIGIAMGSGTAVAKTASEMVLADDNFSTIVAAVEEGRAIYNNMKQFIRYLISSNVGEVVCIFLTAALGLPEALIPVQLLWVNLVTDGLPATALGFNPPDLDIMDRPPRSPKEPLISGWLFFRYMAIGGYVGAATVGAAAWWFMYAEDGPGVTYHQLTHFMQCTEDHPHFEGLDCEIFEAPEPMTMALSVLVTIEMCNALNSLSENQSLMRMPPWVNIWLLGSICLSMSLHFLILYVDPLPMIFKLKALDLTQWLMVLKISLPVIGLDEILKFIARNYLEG

Take Hexabromobipyrroles [Compound 25]: the SERCA1a inhibition in series [1] (at 2.0 μM) was greater than 80%; in series [1] (at 10 μM), ~ 90%. Moreover, in series [2] (setting [7]), the “enhancement of [3H]Ry binding to RyR1 compared to baseline” value (shortened to “enhancement … compared to baseline”) is given as no less than 1.5 fold. Moreover, the “net release of accumulated Ca2+ from loaded microsomal vesicles” value (shortened to “net release of accumulated Ca2+”) in series [3] (setting [8]) was “triggered dose-dependent Ca^2+ efflux”. In series [3] (concentration-dependent, Figure SI3), the “loading capacity of calcium into microsomal vesicles” value is reported as “diminished the loading capacity”.
With `Clc1[nH]c2ccccc2c1Cl` [Compound 13, 2,3-dichloroindole], the “enhancement … compared to baseline” value in series [2] (setting [7]) is no less than 1.5 fold.
Take `Brc1ccc(Oc2cc(Br)ccc2Br)c(Br)c1` [BDE-49]: in series [4], the “mode of action toward RyR1” value is recorded as “monotonic”.
`CCOC(=O)c1cc(Br)c[nH]1` [Compound 27, ethyl-4-bromopyrrole-2-carboxylate]: the “activity toward SERCA1a” value in series [1] is “inactive”. Besides, the “activity in enhancing [3H]Ry binding to RyR1” value (“activity in enhancing” below) in series [2] was “inactive”. Further, the “net release of accumulated Ca2+” value in series [3] (setting [8]) was “failed to trigger net release”.
As to `Oc1c(Br)cc(Oc2c(Br)cc(Br)cc2Br)cc1Br` [Compound 18, 4′-hydroxy-2,3′,4,5′,6-pentabromodiphenyl ether], the results for the SERCA1a inhibition in series [1] (at 2.0 μM) and in series [1] (at 10 μM) were greater than 80% and ~ 90%, respectively. In series [2] (setting [7]), the “enhancement … compared to baseline” value is on record as no less than 1.5 fold. Further, the “net release of accumulated Ca2+” value in series [3] (setting [8]) is listed as “triggered dose-dependent Ca^2+ efflux”.
As usually defined, the inhibition is the percentage by which the read-out fell short of the control. `Brc1cc(Br)c(Br)[nH]1` [Compound 34, 2,3,5-tribromopyrrole]: in series [1], the inhibition at 10 µM was found to be 48%. Moreover, in series [2], the “RyR1 inhibitory potency compared with 6” value is “weaker inhibitors than 6”, the “maximum efficacy relative to 6” value is listed as 2.5 fold and the “decrease of apparent activation potency relative to 6” value was determined as 107 fold. Moreover, the “enhancement … compared to baseline” value in series [2] (setting [7]) was no less than 1.5 fold. Moreover, in series [2] (setting [9]), the “mode of modulation of RyR1” value is “biphasic”. In addition, in series [5], the “cytotoxicity” value was “cytotoxic” and the “genotoxicity” value was “genotoxic”. Further, the “net release of accumulated Ca2+” value in series [3] (setting [8]) was “triggered dose-dependent Ca^2+ efflux”.
For `CN1C(=O)C(Br)=C(Br)C1=O` [Compound 28, 2,3-dibromo-N-methylmaleimide], in series [2] (setting [7]), the “enhancement … compared to baseline” value was no less than 1.5 fold. The “mode of modulation of RyR1” value in series [2] (setting [9]) is given as “biphasic”.
Consider `Brc1[nH]c(Br)c(Br)c1Br` [Compound 31, tetrabromopyrrole], for which the SERCA1a inhibition in series [1] (at 10 μM) is 80%. In series [2], the “RyR1 inhibitory potency compared with 6” value is listed as “weaker inhibitors than 6”, the “maximum efficacy relative to 6” value came out at 2.5 fold and the “decrease of apparent activation potency relative to 6” value is listed as 68 fold. In series [2] (setting [7]), the “enhancement … compared to baseline” value was no less than 1.5 fold. For the same molecule, the “mode of modulation of RyR1” value in series [2] (setting [9]) is listed as “biphasic”. For the same molecule, the “net release of accumulated Ca2+” value in series [3] (setting [8]) is “triggered dose-dependent Ca^2+ efflux”. Also, the “developmental toxicity” value in series [6] is reported as “potent developmental toxicity”.
Take `Brc1[nH]c2ccccc2c1Br` [Compound 14, 2,3-dibromoindole]: the inhibition at 10 µM in series [1] turned out to be 60%. Moreover, the “enhancement … compared to baseline” value in series [2] (setting [7]) is listed as no less than 1.5 fold. Besides, in series [3] (setting [8]), the “net release of accumulated Ca2+” value is “triggered dose-dependent Ca^2+ efflux”.
Consider `Oc1cc(Br)c(Oc2ccc(Br)cc2Br)cc1Br` [Compound 4-OH-BDE-49, 4′hydroxy-2,2′,4,5′-tetrabromodiphenyl ether], for which the “mode of action toward RyR1” value in series [4] is on record as “biphasic”.
`Brc1c[nH]c(Br)c1Br` [Compound 26, 2,3,4-tribromopyrrole]: the “activity toward SERCA1a” value in series [1] was “inactive”. In addition, the “activity in enhancing” value in series [2] was “inactive”. Also, the “net release of accumulated Ca2+” value in series [3] (setting [8]) is given as “failed to trigger net release”.
A word on the EC50: it is the concentration that produces a half-maximal response. Low values mean higher potency in that assay, high ones lower potency in that assay. A word on the IC50: it is the concentration that gives 50% inhibition. With `O=C1NC(=O)C(Br)=C1Br` [Compound 6, 2,3-dibromomaleimide], in series [1], the “SERCA1a inhibition” value is reported as “without inhibition of SERCA1a”, the “concentration at which SERCA1a inhibition was detected (only the highest tested)” value is 10 µM and the inhibition at 10 µM was 50%. In addition, in series [2], the response was half-maximal at 360 nM (EC50), the IC50 worked out at 3000 nM, the “concentration at which RyR1 inhibitory phase was detected” value is less than 5 µM and the “concentration that maximally activated RyR1” value is listed as 0.6−1.0 μM. For the same molecule, in series [2], the “enhancement … compared to baseline” value is reported as no less than 1.5 fold and the “mode of modulation of RyR1” value is given as “biphasic”. In addition, in series [3], the “Ca2+-induced Ca2+ release rate vs control” value was “significantly higher rates of release than control”, the “net release of accumulated Ca2+” value was “failed to trigger net Ca^2+ efflux” and the “sensitizing influence on calcium-induced calcium release” value is given as “did not reach statistical significance”.
Take `c1cc[nH]c1` [Compound 24, pyrrole]: the “activity toward SERCA1a” value in series [1] is “inactive”. For the same molecule, the “activity in enhancing” value in series [2] is “inactive”.
